Assay results published in PMC3997423, “Identification and HLA-Tetramer-Validation of Human CD4^+ and CD8^+ T Cell Responses against HCMV Proteins IE1 and IE2” (PLoS ONE, 2014).
Where no end group is shown, it is not given here.

Legend:
[1] = molecular target: HLA-A*01:01 (Homo sapiens, UniProt P04439, A114D/A174V/A182V/D101N/D185E/E176A/E190D/L180R/Q94H/R68K/S129P/T187R/V100A/V91M/W191G); assay: Peptide-HLA class I binding affinity; details: read-out: Measured affinity
Procedure: (§1) Peptide-HLA class I and II binding affinities were determined as previously described [44], [45].
(§2) Complex formation was detected using a proximity-based Luminescent Oxygen Channeling Immunoassay assay and the peptide concentration leading to half-saturation (ED50) was determined as previously described [44], [45]. Under the limited receptor concentrations used here, the ED50 reflects the affinity of the interaction.

[2] = molecular target: HLA-C*06:02 (Homo sapiens, UniProt P10321, A176E/A330V/C350S/L171W/L180W/L218V/M285V/M309V/M331V/N104K/P208H/Q277E/Q291P/R121W/S101N/S123Y/S297R/T329A/T363A/V319A/V328M); assay: Peptide-HLA class I binding affinity; details: read-out: Measured affinity
Procedure: as §1, §2

[3] = molecular target: HLA-B*08:01 (Homo sapiens, UniProt P01889, A93T/A95T/D138N/E176V/E187T/K202T/Q94N/R180D/S35A/V36M/Y33D/Y91F); assay: biochemical
[4] = molecular target: HLA-B*13:02 (Homo sapiens, UniProt P01889, A65T/A93T/A95T/D138N/D201E/D98Y/E176V/E204Q/E69M/E70A/G107R/K202T/L105A/L119W/N104T/N87E/Q94N/R106L/R155S/R169L/R180L/S101N/S121T/S35A/S48T/V127L/V36M/Y140L/Y91S); assay: Peptide-HLA class I binding affinity; details: read-out: Measured affinity
Procedure: as §1, §2

[5] = molecular target: HLA-DRB1*15:01 (Homo sapiens, UniProt P01903+P01911); assay: Peptide-HLA class II binding affinity; details: read-out: measured affinity
Procedure: as §1, §2

[6] = molecular target: HLA-DRB1*07:01 (Homo sapiens, UniProt P01903+P01911, A100R/A102G/A103Q/D57E/D86V/E43K/F76Y/K127E/L162R/M171V/P40G/Q125H/Q99D/R33Q/R42Y/R54Q/S133A/S66F/T210M/V115G/Y107V/Y59L/Y89S); assay: Peptide-HLA class II binding affinity; details: read-out: measured affinity
Procedure: as §1, §2

[7] = molecular target: HLA-B*40:01 (Homo sapiens, UniProt P01889, A65T/A93T/A95T/D138N/D98Y/E176V/E69K/N87E/Q56L/Q94N/R180L/S121R/S35A/S48T/T167S/V36M/W171L/Y33H/Y91S); assay: Peptide-HLA class I binding affinity; details: read-out: Measured affinity
Procedure: as §1, §2

[8] = molecular target: T1, HLA-DRB3*01:01 (Homo sapiens, UniProt P01903+P79483); assay: Peptide-HLA class II binding affinity; details: recombinant HLA class II α- and β-chains refolded with graded peptide, 48 h, 18°C; LOCI; ED50; read-out: Measured affinity
T1 construct: made in house
Procedure: as §1, §2

[9] = molecular target: HLA-DRB1*03:01 (Homo sapiens, UniProt P01903+P01911, A100K/A102G/A103R/A169T/F55Y/I96L/K41T/L162R/M171V/P40S/Q125H/Q178H/Q39Y/R42S/S66N/T106N/T262R/W38E/Y61H); assay: Peptide-HLA class II binding affinity; details: recombinant HLA class II α- and β-chains refolded with graded peptide, 48 h, 18°C; LOCI; ED50; read-out: Measured affinity
Procedure: as §1, §2

[10] = tested on: CD8^+ T cells; assay: Ex vivo peptide-HLA class I tetramer staining; type: cell-based, human; details: peptide-C*07:02 tetramer, responding donors
Procedure: To tetramerize the resulting peptide-HLA class I monomers, Streptavidin-PE or Streptavidin-APC (Biolegend, San Diego, USA) was sequentially added over 60 min at a 1∶4 molar ratio of Streptavidin to peptide-HLA-I monomers. PBMCs were resuspended in 25 µl PE- and APC-conjugated tetramer and incubated for 20 min at RT followed by 30 min incubation with anti-CD3-Pacific blue, anti-CD4-APC/Cy7, and anti-CD8-PerCP antibody (Biolegend, San Diego, USA).

[11] = molecular target: HLA-DRB1*01:01 (Homo sapiens, UniProt P01903+P01911, A100R/D57E/F55L/F60I/F76Y/I96L/L162R/M171V/P40L/Q125E/R42F/V115G/Y59C); assay: Peptide-HLA class II binding affinity; details: read-out: measured affinity
Procedure: as §1, §2

[12] = molecular target: HLA-A*03:01 (Homo sapiens, UniProt P04439); assay: biochemical
Procedure: as §1, §2

[13] = molecular target: HLA-DRB1*13:01 (Homo sapiens, UniProt P01903+P01911, A100E/A169T/K41T/L162R/M171V/P40S/Q125H/Q178H/Q39Y/Q99D/R42S/S66N/T262R/W38E/Y61H); assay: Peptide-HLA class II binding affinity; details: read-out: measured affinity
Procedure: as §1, §2

[14] = molecular target: HLA-B*55:01 (Homo sapiens, UniProt P01889, A329T/C349S/D138N/D201E/E187T/E204Q/K202T/L119W/R155S/R180L/S121T/S35A/S48A/V127L/V306I/V36M/Y140L); assay: Peptide-HLA class I binding affinity; details: read-out: Measured affinity
Procedure: as §1, §2

[15] = molecular target: HLA-A*68:01 (Homo sapiens, UniProt P04439, A269V/D185E/E176V/E277Q/E87N/F33Y/G231S/I121M/I166T/I218V/L180W/L300P/L318F/N151K/P208A/P217A/Q86R/R169H/T345S); assay: Peptide-HLA class I binding affinity; details: read-out: Measured affinity
Procedure: as §1, §2

Chain of HLA-DRB1*03:01 (P01903 26-254 limits assumed, other chains not shown): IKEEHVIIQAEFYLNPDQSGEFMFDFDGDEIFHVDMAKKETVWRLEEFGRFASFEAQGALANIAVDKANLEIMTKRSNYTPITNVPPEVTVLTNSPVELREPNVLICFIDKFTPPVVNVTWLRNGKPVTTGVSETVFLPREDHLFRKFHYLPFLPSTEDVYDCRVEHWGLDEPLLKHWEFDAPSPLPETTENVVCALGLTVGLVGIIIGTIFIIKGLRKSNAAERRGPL

## TSDACMMTMY [IE1_290–299]
[1]
  Kd: 9 nM

## QIKVRVDM [IE1_88–95]
[2]
  Kd: 3 nM
[3]
  Kd: 579 nM

## YILGADPLRV [IE1_354-363]
[4]
  Kd: 87 nM

## CC[C@H](C)[C@H](NC(=O)CNC(=O)[C@@H](N)CCCCN)C(=O)N[C@@H](CCC(N)=O)C(=O)N[C@H](C(=O)N[C@H](C(=O)N[C@@H](Cc1ccc(O)cc1)C(=O)N[C@H](C(=O)N[C@@H](CCCNC(=N)N)C(=O)N[C@@H](CC(N)=O)C(=O)N[C@@H](Cc1c[nH]cn1)C(=O)N[C@@H](CCC(=O)O)C(=O)N[C@H](C(=O)N[C@@H](CCCCN)C(=O)N[C@@H](CO)C(=O)O)C(C)C)[C@@H](C)O)[C@@H](C)CC)[C@@H](C)CC [IE2_408–422]
[5]
  Kd: 45 nM
[6]
  Kd: 53 nM

## EEAIVAYTL [IE1_381–389]
[7]
  Kd: 13 nM

## VKQIKVRVDMVRHRI [IE1_86–100]
[8]
  Kd: 109 nM
[9]
  Kd: 4 nM

## CC[C@H](C)[C@H](NC(=O)[C@H](CCCCN)NC(=O)[C@@H](NC(=O)[C@H](CCCNC(=N)N)NC(=O)CNC(=O)[C@H](CCCNC(=N)N)NC(=O)[C@H](CCCNC(=N)N)NC(=O)[C@@H](N)[C@@H](C)O)C(C)C)C(=O)N[C@@H](CC(=O)O)C(=O)N[C@@H](CCC(=O)O)C(=O)N[C@H](C(=O)N[C@@H](CO)C(=O)N[C@@H](CCCNC(=N)N)C(=O)N[C@@H](CCSC)C(=O)N[C@@H](Cc1ccccc1)C(=O)O)C(C)C [IE2_356–370]
[8]
  Kd: 2 nM
[9]
  Kd: 9 nM

## CRVLCCYVL [IE1_309–317]
[10]
  TMRI (%): 0.8–8.0%

## FLMEHTMPVTHPPEV [IE2_443–457]
[11]
  Kd: 2 nM

## KEVNSQLSL [IE1_42–50/IE2_42–50]
[7]
  Kd: 25 nM

## KLGGALQAK [IE1_184–192]
[12]
  Kd: 216 nM

## VRVDMVRHRIKEHML [IE1_91–105]
[8]
  Kd: > 5000 nM
[13]
  Kd: 2 nM
[9]
  Kd: 10 nM

## VRHRIKEHMLKKYTQ [IE1_96–110]
[13]
  Kd: 2 nM

## CSCC[C@H](NC(=O)[C@H](CC(C)C)NC(=O)[C@H](Cc1ccccc1)NC(=O)[C@@H]1CCCN1C(=O)[C@@H](NC(=O)[C@H](CO)NC(=O)[C@H](CC(C)C)NC(=O)[C@H](C)N)[C@@H](C)O)C(=O)N[C@@H](CCC(=O)O)C(=O)N[C@@H](Cc1c[nH]cn1)C(=O)N[C@H](C(=O)N[C@@H](CCSC)C(=O)N1CCC[C@H]1C(=O)N[C@H](C(=O)N[C@H](C(=O)O)[C@@H](C)O)C(C)C)[C@@H](C)O [IE2_438–452]
[11]
  Kd: 6 nM

## RIKEHMLKK [IE1_99–107]
[12]
  Kd: 542 nM

## QIKVRVDMV [IE1_88–96]
[3]
  Kd: 994 nM

## FPKTTNGCSQA [IE1_221–231]
[14]
  Kd: 138 nM

## TTFLQTMLR [IE1_33–41/IE2_33–41]
[15]
  Kd: 1 nM
